Laboratory results published in patent EP1123702A1, “ANALGESICS” (Eisai Co., Ltd., priority 1998, dated 2000).
Counter-ions that a name gives are not always drawn.

Tests used:
writhing behavior = experiment: Analgesic action by a writhing method using acetic acid; format: in vivo, Male mice of a ddY strain; settings: sc; statistically minimum effective dose; 0.6% acetic acid ip 15 minutes after the drug, writhing counted for ten minutes; mice
5HT2 = 5HT2 (Homo sapiens, UniProt P28223); experiment: Serotonin (5HT) receptor binding action (RBA; in vitro), 5HT2; settings: method of JP98/01481 or JP-A 10-281752
5HT2, sequence (P28223 whole entry, species assumed): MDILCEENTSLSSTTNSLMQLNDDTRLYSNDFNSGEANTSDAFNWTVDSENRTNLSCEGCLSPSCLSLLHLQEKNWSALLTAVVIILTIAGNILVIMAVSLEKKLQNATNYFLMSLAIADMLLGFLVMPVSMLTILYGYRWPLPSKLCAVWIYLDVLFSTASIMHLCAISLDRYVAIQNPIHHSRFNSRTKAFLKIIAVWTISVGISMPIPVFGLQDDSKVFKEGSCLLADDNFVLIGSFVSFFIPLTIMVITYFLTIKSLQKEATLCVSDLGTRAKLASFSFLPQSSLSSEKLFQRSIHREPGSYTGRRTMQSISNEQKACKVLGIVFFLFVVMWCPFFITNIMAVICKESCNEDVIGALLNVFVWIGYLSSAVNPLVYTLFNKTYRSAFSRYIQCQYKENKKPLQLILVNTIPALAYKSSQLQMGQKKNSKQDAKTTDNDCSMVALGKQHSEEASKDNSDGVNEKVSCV

[1] = Muscle relaxing action (in vivo); settings: method of JP98/01481 or JP-A 10-281752
Source text: There are also shown a serotonin (5HT) receptor binding action (RBA; in vitro) and a muscle relaxing action (in vivo) measured according to a method described in JP98/01481 or JP-A 10-281752. (In the table, "n.t." means "not tested").

5HT1A = biological target: T1, 5HT1A (Homo sapiens, UniProt P08908); experiment: Serotonin (5HT) receptor binding action (RBA; in vitro), 5HT1A; settings: method of JP98/01481 or JP-A 10-281752
T1 sequence (P08908 1-422): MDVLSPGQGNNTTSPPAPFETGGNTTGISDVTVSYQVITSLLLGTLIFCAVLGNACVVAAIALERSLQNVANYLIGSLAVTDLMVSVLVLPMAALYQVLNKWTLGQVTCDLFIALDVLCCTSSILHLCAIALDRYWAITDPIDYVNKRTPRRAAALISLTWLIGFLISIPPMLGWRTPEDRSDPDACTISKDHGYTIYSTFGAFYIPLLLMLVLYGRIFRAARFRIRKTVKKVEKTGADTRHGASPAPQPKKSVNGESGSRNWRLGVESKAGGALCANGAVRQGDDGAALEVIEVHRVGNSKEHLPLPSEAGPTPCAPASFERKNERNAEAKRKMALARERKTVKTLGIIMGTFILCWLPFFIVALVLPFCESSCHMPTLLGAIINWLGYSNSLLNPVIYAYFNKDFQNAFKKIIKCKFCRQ

| SMILES | Analgesic Action (minimum effective dose) (writhing behavior) [mg/kg] | Ki (5HT2) [nM] | Muscle-Relaxing Action (po) [1] | Ki (5HT1A) [nM] | Muscle-Relaxing Action (ip) [1] |
| --- | --- | --- | --- | --- | --- |
| CCN1CCN(c2nc(-c3ccc(C(C)O)cc3)cc3sccc23)CC1.O=C(O)C(=O)O (stereo not shown) [(26), 4-(4-ethylpiperazin-1-yl)-6-[4-(1-hydroxyethyl)phenyl]thieno[3,2-c]pyridine oxalate] | 1 | 16.9 | < 3 mg/kg | 15 | – |
| CNC(=O)Cc1ccc2ccn(C3CCN(CCc4ccccc4F)CC3)c2c1 [(10), 1-[1-(2-fluorophenethyl)piperidin-4-yl]-6-(N-methylamidemethyl)indole] | 3 | 1.23 | < 1 mg/kg | 4.02 | 3 mg/kg |
| CC(=O)NCc1ccc2ccn(C3CCN(CCc4ccccc4F)CC3)c2c1 [(4), 1-[1-(2-fluorophenethyl)piperidin-4-yl]-6-(N-acetylaminomethyl)indole] | 3 | 0.75 | 10 mg/kg | 1.58 | – |
| CCN1CCN(c2nc(-c3ccc(OCC(C)(C)O)cc3)cc3sccc23)CC1.Cl [(25), 4-(4-ethylpiperazin-1-yl)-6-[4-(2-hydroxy-2-methylpropoxy)phenyl]thieno[3,2-c]pyridine hydrochloride] | 10 | 1.4 | 1 mg/kg | 54.9 | 0.3 mg/kg |
| NC(=O)Cc1ccc2ccn(C3CCN(CCc4ccc(F)cc4)CC3)c2c1 [(8), 1-[1-(4-fluorophenethyl)piperidin-4-yl]-6-amidemethylindole] | > 3 | – | 3 mg/kg | – | – |
| CC(=O)NCc1ccc2ccn(C3CCN(CCc4ccc(F)cc4)CC3)c2c1 [(1), 1-[1-(4-Fluorophenethyl)piperidin-4-yl]-6-(N-acetylaminomethyl)indole] | 0.3 | 1.38 | 1 mg/kg | 0.51 | 0.3 mg/kg |
| CCN1CCN(c2nc(-c3ccc(OC)cc3)cc3ccccc23)CC1 [(15), 1-(4-ethylpiperazin-1-yl)-3-(4-methoxyphenyl)isoquinoline] | 3 | 11.1 | – | 59.9 | – |
| CCCS(=O)(=O)NCc1ccc(-c2cc3ccccc3c(N3CCN(CC)CC3)n2)cc1Cl.Cl [(23), 1-(4-ethylpiperazin-1-yl)-3-(3-chloro-4-propylsulfonylaminomethylphenyl)isoquinoline hydrochloride] | 3 | 0.7 | > 30 mg/kg | 0.9 | – |
| CCN1CCN(c2nc(-c3ccc(OCC(C)O)cc3)cc3sccc23)CC1.Cl (stereo not shown) [(24), 4-(4-ethylpiperazin-1-yl)-6-[4-(2-hydroxypropoxy)phenyl]thieno[3,2-c]pyridine hydrochloride] | 1 | 0.9 | 3 mg/kg | 27.9 | 1 mg/kg |
| NC(=O)Cc1ccc2ccn(C3CCN(CCc4ccccc4F)CC3)c2c1 [(13), 1-[1-(2-fluorophenethyl)piperidin-4-yl]-6-amidemethylindole] | 3 | 2.81 | 3 mg/kg | 0.59 | 1 mg/kg |
| CCC(=O)NCc1ccc2ccn(C3CCN(CCc4ccc(F)cc4)CC3)c2c1 [(2), 1-[1-(4-fluorophenethyl)piperidin-4-yl]-6-(N-propionylaminomethyl)indole] | 3 | 2.6 | 3 mg/kg | 1 | 0.3 mg/kg |
| CCN1CCN(c2nc(-c3cccc(CCCO)c3)cc3ccccc23)CC1 [(22), 1-(4-ethylpiperazin-1-yl)-3-(3-hydroxypropylphenyl)isoquinoline hydrochloride] | 3 | 17.4 | – | 54.5 | – |
| CCN1CCN(c2nc(-c3ccc(CCCO)c(OC)c3)cc3ccccc23)CC1.Cl [(20), 1-(4-ethylpiperazin-1-yl)-3-(3-methoxy-4-hydroxypropylphenyl)isoquinoline hydrochloride] | 3 | 10.9 | 10 mg/kg | 7.9 | – |
| CNC(=O)Cc1ccc2ccn(C3CCN(CCc4ccc(F)cc4)CC3)c2c1 [(9), 1-[1-(4-fluorophenethyl)piperidin-4-yl]-6-(N-methylamidemethyl)indole] | 1 | – | 3 mg/kg | – | 0.3 mg/kg |
| COc1ccc(CCN2CCC(n3ccc4ccc(CNC(C)=O)cc43)CC2)cc1 [(3), 1-[1-(4-methoxyphenethyl)piperidin-4-yl]-6-(N-acetylaminomethyl)indole] | 10 | > 20 | – | 0.27 | – |
| CN1CC[C@]23c4c5ccc(O)c4O[C@H]2[C@@H](O)C=C[C@H]3[C@H]1C5.Cl [Morphine Hydrochloride, morphine hydrochloride, reference compound] | 1 | – | Ineffective (Strain Induced) | – | Ineffective (Strain Induced) |
| CCNC(=O)Cc1ccc2ccn(C3CCN(CCc4ccccc4F)CC3)c2c1 [(11), 1-[1-(2-fluorophenethyl)piperidin-4-yl]-6-(N-ethylamidemethyl)indole] | 3 | – | 10 mg/kg | – | – |
| COc1ccccc1N1CCN(CCN(C(=O)C2CCCCC2)c2ccccn2)CC1 [WAY-100,635, reference compound] | 3 | > 200 | – | – | > 10 mg/kg |
| O=C(Cc1ccc2ccn(C3CCN(CCc4ccc(F)cc4)CC3)c2c1)NCCO [(6), 1-[1-(4-fluorophenethyl)piperidin-4-yl]-6-(N-hydroxyethylamidemethyl)indole] | > 10 | – | 10 mg/kg | – | – |
| O=C(Cc1ccc2ccn(C3CCN(CCc4ccccc4F)CC3)c2c1)NCCO [(12), 1-[1-(2-fluorophenethyl)piperidin-4-yl]-6-(N-hydroxyethylamidemethyl)indole] | 10 | – | > 10 mg/kg | – | – |
| CN(C)C(=O)Cc1ccc2ccn(C3CCN(CCc4ccc(F)cc4)CC3)c2c1 [(7), 1-[1-(4-fluorophenethyl)piperidin-4-yl]-6-(N,N-dimethylamidemethyl)indole oxalate] | > 10 | – | – | – | – |
| CC(C)(O)COc1ccc(-c2cc3sccc3c(N3CCN(CCO)CC3)n2)cc1.Cl [(27), 4-(4-hydroxyethylpiperazin-1-yl)-6-[4-(2-hydroxy-2-methylpropoxy)phenyl]thieno[3,2-c]pyridine hydrochloride] | 1 | 0.35 | – | 1530 | – |
| COc1cccc(C(O)C2CCN(CCc3ccc(F)cc3)CC2)c1OC (stereo not shown) [MDL-100,907, reference compound] | 3 | – | 1 mg/kg | – | 0.3 mg/kg |
